Among the data in US20150321164A1, “METHOD FOR SYNTHESIZING AND SCREENING LEAD COMPOUND AND REAGENT TESTING KIT” (HITGEN LTD., priority 2012, published 2015) are IC50 values, retold here.

The target of this assay is T1, trypsin (Bos taurus, UniProt P00760).
T1 sequence (P00760 24-246): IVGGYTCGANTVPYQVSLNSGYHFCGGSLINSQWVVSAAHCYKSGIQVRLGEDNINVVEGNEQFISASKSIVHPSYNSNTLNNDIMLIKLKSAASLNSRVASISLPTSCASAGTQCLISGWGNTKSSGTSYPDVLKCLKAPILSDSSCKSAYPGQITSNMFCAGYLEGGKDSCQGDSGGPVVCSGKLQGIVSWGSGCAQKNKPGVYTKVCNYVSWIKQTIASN
Briefly: trypsin enzyme inhibition activity. The class given is biochemical. Conditions: enzyme inhibition activity of the resynthesized screened compound, FIGS. 4-5. The procedure:
According to the structural formula, the compound is tested at the end of synthesis.

Consider `C[C@H](NC(=O)[C@H](CNC(=O)Cc1ccc2ccccc2c1)NS(=O)(=O)c1ccccc1)C(=O)NCc1ccc(C(=N)N)cc1`, for which the concentration for half-maximal inhibition (IC50) (usually the midpoint of a concentration-inhibition curve) amounted to 8.1 ± 2.1 nM.
